According to patent publication US20250129122A1, “PEPTIDE, AND CELL FUSION AGENT AND PHARMACEUTICAL COMPOSITION FOR CANCER THERAPY CONTAINING SAID PEPTIDE” (priority 2021, published 2025):

Assays:
[1] = tested on: HVJ virus (Sendai virus); assay: Virus envelope fusion, electron micrograph
Text: In this example, peptide 16 was applied to the HVJ virus (Sendai virus), and its ability to fuse with the virus was examined.

[2] = tested on: RFL cells; assay: Apoptosis induction, Caspase-3/7 activity (IncuCyte S3 live cell analysis); type: cell-based, rat; conditions: 0.06 μg/mL, scanned every hour for 3 days, untreated control did not increase
Method: (§1) In this Example, the apoptosis ability of peptide 16 was examined using the […] and RM4 cells. An activity of Caspase-3/7 which are indications of apoptosis, was measured using IncuCyte S3 live cell analysis system (Essen BioScience).
(§2) The activity of Caspase-3/7 activity is measured using an inert non-fluorescent (DEVD) substrate that can penetrate the cell membrane. An activated Caspase-3/7 cleaves the substrate, and thereby a DNA-bound green fluorescent label is released. The activity of Caspase-3/7 is measured by the intensity of green fluorescence.
(§3) RFL cells or RM4 cells were seeded on 96-well plates and 0.06 μg/mL of peptide 16 was added thereto. Caspase-3/7 Green Reagent (Unit size: 20 ul, 5 mM/vial) was diluted 500-fold with Ham's F-12K and added thereto.
(§4) They were measured using the IncuCyte S3 live cell analysis system, by continuously scanning every hour for 3 days with an objective lens of magnification of 10 times and 4 fields of view. As a control, RFL cells or RM-4 cells which were not treated with peptide 16, were used.

[3] = tested on: A549 cells (human alveolar epithelial adenocarcinoma cells); assay: In vivo anticancer effect on A549 tumor transplanted in nude mice; parameters: species or system mouse; conditions: A549 subcutaneous, 18.75 mg/kg or 37.5 mg/kg intravenously two times/week during 5 weeks, autopsy 35 days after implantation
Method: In this example, the anticancer effect of peptide 16 on A549 cells (human alveolar epithelial adenocarcinoma cells) was examined in vivo.
CAnN.Cg-Foxn1nu/CrlCrlj nude mice were divided into groups of 6 animals each. A549 cells were suspended in PBS at a concentration of 1×10^8 cells/mL and 0.1 mL thereof were transplanted subcutaneously to the right ventral part thereof. The peptide 16 was administered intravenously from the tail vein at a dose of 18.75 mg/kg or 37.5 mg/kg (peptide 16 group-1, or peptide 16 group-2) on two times/week during 5 weeks after tumor transplantation. Control group was administered PBS only.
Autopsy was performed 35 days after tumor implantation, and the tumor was removed. FIGS. 13A (×100) and B (×400) are the photographs of tumor masses of A549 cells treated with peptide 16, and FIGS. 13C (×100) and D (×400) are the controls.

[4] = tested on: RM4 cells; assay: Apoptosis induction, Caspase-3/7 activity (IncuCyte S3 live cell analysis); type: cell-based; conditions: 0.06 μg/mL, scanned every hour for 3 days, untreated control did not increase
Method: as §1, §2, §3, §4

Substance: CH3-Pro-Ile-Val-Ser-Thr-Gln-Thr-Ala-Leu-Ala-miniPEG-D-Lys-D-Lys-D-Lys-NH2 [peptide 16]
- fusion of the virus envelope [1]: Fusion of the envelope of the HVJ virus was observed
- activity of Caspase-3/7 [2]: the activity increased rapidly between 10 and 20 hours
- antitumor effect, HE-stained excised tumor [3]: the inside of the tumor is necrotic
- activity of Caspase-3/7 [4]: the activity increased rapidly between 10 and 20 hours
